Assay results as given in patent publication US12617793B2, “Organic electron transfer mediator and device comprising same” (I-sens, Inc., priority 2019, dated 2026).

Columns and labels:
[1] = Cyclic voltammetry of organic electron-transfer mediators (oxidation reduction potential vs Ag/AgCl); type: physicochemical; conditions: for Eox / Ered: pH 7.0, 2 mg/mL in water, 0.1M PBS buffer, vs Ag/AgCl
[2] = Solubility depending on the solvent (seen from CV current strength); conditions: for solubility in water: water / 0.1 M PBS aqueous buffer
[3] = Stability test by pH and solvent (CV after one day of the solution; colour change); type: physicochemical
[4] = compared to the Ag/AgCl reference electrode; cited from earlier work

Structure (SMILES): N#Cc1cc2nc3c(=O)[nH]c(=O)nc-3n(CCO)c2cc1C#N [Chemical formula 16]
- E1/2 (vs Ag/AgCl) ([1]; 0.1M PBS in H2O): −0.154 V
- E1/2 (vs Ag/AgCl) ([1]; 0.1M PBS in H2O, listed as drawing 56): −0.153 V
- E1/2 (vs Ag/AgCl) ([1]; 0.1M TBAP in CH3CN): −0.319 V
- E1/2 (vs Ag/AgCl) ([1]; 0.1M TBAP in DMSO): −0.315 V
- solubility in acetonitrile ([2]; 0.1M TBAP in CH3CN): very low
- solubility in water [2]: prominent

Structure (SMILES): N#Cc1cc2nc3c(=O)[nH]c(=O)nc-3n(CCCCCO)c2cc1C#N [Chemical formula 6, 10-(5-hydroxypentyl)-2,4-dioxo-2,3,4,10-tetrahydrobenzo[g]pteridine-7,8-dicarbonitrile]
- E1/2 (vs Ag/AgCl) ([1]; 0.1M TBAP in DMSO): −0.325 V

Structure (SMILES): C=CCn1c2nc(=O)[nH]c(=O)c-2nc2cc(C#N)c(C#N)cc21 [Chemical formula 15]
- E1/2 (vs Ag/AgCl) ([1]; 0.1M PBS in H2O): −0.196 V
- Eox [1]: −0.120 V
- Ered [1]: −0.216 V
- solubility in water [2]: very low

Structure (SMILES): Cc1ccc(Cn2c3nc(=O)[nH]c(=O)c-3nc3cc(C#N)c(C#N)cc32)cc1 [Chemical formula 9, 10-(4-methylbenzyl)-2,4-dioxo-2,3,4,10-tetrahydrobenzo[g]pteridine-7,8-dicarbonitrile]
- E1/2 (vs Ag/AgCl) ([1]; 0.1M TBAP in DMSO): −0.296 V

Structure (SMILES): N#Cc1cc2nc3c(=O)[nH]c(=O)nc-3n(CCCS(=O)(=O)O)c2cc1C#N [Chemical formula 2, 3-(7,8-dicyano-2,4-dioxo-3,4-dihydrobenzo[g]pteridin-10(2H)-yl)propane-1-sulfonic acid]
- stability in DMSO ([3]; 0.1M TBAP in DMSO): changed to a different structure under DMSO
- stability by pH ([3]; CV after one day of the solution at pH 4-9): the current value decreased under the basic condition
- E1/2 (vs Ag/AgCl) ([1]; 0.1M PBS in H2O): −0.172 V
- E1/2 (vs Ag/AgCl) ([1]; 0.1M TBAP in CH3CN): −0.315 V
- E1/2 (vs Ag/AgCl) ([1]; 0.1M TBAP in DMSO): 0.061 V
- Eox [1]: −0.139 V
- Ered [1]: −0.229 V

Structure (SMILES): N#Cc1cc2nc3c(=O)[nH]c(=O)nc-3n(CCOCCO)c2cc1C#N [Chemical formula 7, 10-(2-(2-hydroxyethoxy)ethyl)-2,4-dioxo-2,3,4,10-tetrahydrobenzo[g]pteridine-7,8-dicarbonitrile]
- E1/2 (vs Ag/AgCl) ([1]; 0.1M TBAP in DMSO): −0.315 V

Structure (SMILES): CC(C)(C)OC(=O)NCCCCCCn1c2nc(=O)[nH]c(=O)c-2nc2cc(C#N)c(C#N)cc21 [Chemical formula 5, tert-butyl (6-(7,8-dicyano-2,4-dioxo-3,4-dihydrobenzo[g]pteridin-10(2H)-yl)hexyl)carbamate]
- E1/2 (vs Ag/AgCl) ([1]; 0.1M TBAP in CH3CN): −0.330 V

Structure (SMILES): Cc1cc2nc3c(=O)[nH]c(=O)nc-3n(C)c2cc1C [flavin [or isoalloxazine]derivative]
- oxidation reduction potential [4]: −0.46 V

Structure (SMILES): N#Cc1cc2nc3c(=O)[nH]c(=O)nc-3[nH]c2cc1C#N [Chemical formula 8, 2,4-dioxo-2,3,4,10-tetrahydrobenzo[g]pteridine-7,8-dicarbonitrile]
- E1/2 (vs Ag/AgCl) ([1]; 0.1M TBAP in DMSO): −0.494 V

Structure (SMILES): CC(C)(C)OC(=O)NCCCCCn1c2nc(=O)[nH]c(=O)c-2nc2cc(C#N)c(C#N)cc21 [Chemical formula 4, tert-butyl (5-(7,8-dicyano-2,4-dioxo-3,4-dihydrobenzo[g]pteridin-10(2H)-yl)pentyl)carbamate]
- E1/2 (vs Ag/AgCl) ([1]; 0.1M TBAP in CH3CN): −0.330 V

Structure (SMILES): COc1ccc(Cn2c3nc(=O)[nH]c(=O)c-3nc3cc(C#N)c(C#N)cc32)cc1 [Chemical formula 10, 10-(4-methoxybenzyl)-2,4-dioxo-2,3,4,10-tetrahydrobenzo[g]pteridine-7,8-dicarbonitrile]
- E1/2 (vs Ag/AgCl) ([1]; 0.1M TBAP in DMSO): −0.298 V

Structure (SMILES): N#Cc1cc2nc3c(=O)[nH]c(=O)nc-3n(Cc3ccccc3)c2cc1C#N [Chemical formula 3, 10-benzyl-7,8-dicyanoisoalloxazine]
- E1/2 (vs Ag/AgCl) ([1]; 0.1M TBAP in DMSO): −0.285 V
